The record followed here is ChEMBL document CHEMBL4422610, “HDAC as onco target: Reviewing the synthetic approaches with SAR study of their inhibitors” (Eur J Med Chem, 2018).

One test deals with Histone deacetylase 3 (Homo sapiens, UniProt O15379). The experiment in a line: Inhibition of human HDAC3 using fluorogenic HDAC substrate.
Another test addresses Histone deacetylase 4 (Homo sapiens, UniProt P56524). The experiment in a line: Inhibition of human HDAC4 using fluorogenic HDAC substrate.
A further test concerns the target T1, Histone deacetylase 8 (Homo sapiens, UniProt Q9BY41).
T1 sequence (Q9BY41 whole entry): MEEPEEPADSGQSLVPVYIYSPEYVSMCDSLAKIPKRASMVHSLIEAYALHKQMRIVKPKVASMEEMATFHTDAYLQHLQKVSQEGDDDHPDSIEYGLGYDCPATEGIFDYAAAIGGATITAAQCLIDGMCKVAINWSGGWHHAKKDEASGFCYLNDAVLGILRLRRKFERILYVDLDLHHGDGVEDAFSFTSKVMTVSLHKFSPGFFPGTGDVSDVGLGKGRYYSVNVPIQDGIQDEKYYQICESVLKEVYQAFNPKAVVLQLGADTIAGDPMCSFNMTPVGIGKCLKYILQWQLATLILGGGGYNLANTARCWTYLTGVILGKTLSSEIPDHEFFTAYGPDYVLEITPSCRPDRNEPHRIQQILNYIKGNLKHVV
The experiment in a line: Inhibition of human HDAC8 using fluorogenic HDAC substrate.

Test [1] has as its target T2, Polyamine deacetylase HDAC10 (Homo sapiens, UniProt Q969S8).
T2 sequence (Q969S8 whole entry): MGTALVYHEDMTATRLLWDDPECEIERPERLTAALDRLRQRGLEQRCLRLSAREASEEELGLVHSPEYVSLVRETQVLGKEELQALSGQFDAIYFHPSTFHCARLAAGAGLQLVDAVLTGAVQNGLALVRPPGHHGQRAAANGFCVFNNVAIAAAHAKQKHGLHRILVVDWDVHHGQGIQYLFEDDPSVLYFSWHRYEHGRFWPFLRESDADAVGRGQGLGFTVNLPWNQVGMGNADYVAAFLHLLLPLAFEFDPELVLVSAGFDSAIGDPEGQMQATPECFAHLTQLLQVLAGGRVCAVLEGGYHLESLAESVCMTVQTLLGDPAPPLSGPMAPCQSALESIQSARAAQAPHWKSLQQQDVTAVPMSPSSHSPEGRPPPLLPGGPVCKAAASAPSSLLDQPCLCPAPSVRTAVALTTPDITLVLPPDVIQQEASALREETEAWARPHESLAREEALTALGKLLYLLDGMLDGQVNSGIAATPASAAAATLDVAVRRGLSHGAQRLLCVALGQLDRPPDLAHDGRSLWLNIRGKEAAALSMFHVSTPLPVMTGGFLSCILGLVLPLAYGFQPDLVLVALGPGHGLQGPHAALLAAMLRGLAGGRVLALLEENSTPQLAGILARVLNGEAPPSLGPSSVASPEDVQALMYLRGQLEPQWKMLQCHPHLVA
The experiment in a line: Inhibition of human HDAC10 using fluorogenic HDAC substrate.

pIC50: −log10 of the molar value.

Histone deacetylase 4, sequence (P56524 whole entry): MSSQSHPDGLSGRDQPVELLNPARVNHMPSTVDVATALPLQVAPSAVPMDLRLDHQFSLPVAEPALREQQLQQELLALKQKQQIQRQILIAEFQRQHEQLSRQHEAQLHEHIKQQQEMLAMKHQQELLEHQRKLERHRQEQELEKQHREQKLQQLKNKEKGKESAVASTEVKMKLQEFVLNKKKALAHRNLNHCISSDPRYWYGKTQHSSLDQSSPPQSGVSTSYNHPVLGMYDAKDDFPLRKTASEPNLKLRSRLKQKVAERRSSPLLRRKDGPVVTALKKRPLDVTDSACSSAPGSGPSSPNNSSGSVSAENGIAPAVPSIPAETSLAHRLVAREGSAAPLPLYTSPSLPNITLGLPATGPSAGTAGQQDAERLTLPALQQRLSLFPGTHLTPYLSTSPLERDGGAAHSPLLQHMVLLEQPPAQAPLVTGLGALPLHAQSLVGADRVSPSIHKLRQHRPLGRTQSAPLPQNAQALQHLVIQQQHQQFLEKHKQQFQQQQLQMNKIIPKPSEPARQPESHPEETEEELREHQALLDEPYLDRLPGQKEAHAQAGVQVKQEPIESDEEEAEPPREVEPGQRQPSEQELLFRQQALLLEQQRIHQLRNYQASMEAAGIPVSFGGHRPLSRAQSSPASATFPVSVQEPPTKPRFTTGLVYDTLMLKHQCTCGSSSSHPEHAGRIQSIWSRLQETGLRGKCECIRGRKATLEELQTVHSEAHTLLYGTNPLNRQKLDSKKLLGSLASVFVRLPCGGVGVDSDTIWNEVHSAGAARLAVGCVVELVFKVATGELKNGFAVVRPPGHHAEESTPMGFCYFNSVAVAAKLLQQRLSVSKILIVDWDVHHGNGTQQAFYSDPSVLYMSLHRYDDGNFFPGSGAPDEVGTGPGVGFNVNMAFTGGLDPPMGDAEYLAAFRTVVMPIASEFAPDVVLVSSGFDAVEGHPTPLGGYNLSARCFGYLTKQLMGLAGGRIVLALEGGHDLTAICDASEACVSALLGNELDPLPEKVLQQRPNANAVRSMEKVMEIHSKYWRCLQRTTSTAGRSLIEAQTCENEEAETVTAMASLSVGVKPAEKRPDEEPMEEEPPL
Histone deacetylase 3, sequence (O15379 whole entry): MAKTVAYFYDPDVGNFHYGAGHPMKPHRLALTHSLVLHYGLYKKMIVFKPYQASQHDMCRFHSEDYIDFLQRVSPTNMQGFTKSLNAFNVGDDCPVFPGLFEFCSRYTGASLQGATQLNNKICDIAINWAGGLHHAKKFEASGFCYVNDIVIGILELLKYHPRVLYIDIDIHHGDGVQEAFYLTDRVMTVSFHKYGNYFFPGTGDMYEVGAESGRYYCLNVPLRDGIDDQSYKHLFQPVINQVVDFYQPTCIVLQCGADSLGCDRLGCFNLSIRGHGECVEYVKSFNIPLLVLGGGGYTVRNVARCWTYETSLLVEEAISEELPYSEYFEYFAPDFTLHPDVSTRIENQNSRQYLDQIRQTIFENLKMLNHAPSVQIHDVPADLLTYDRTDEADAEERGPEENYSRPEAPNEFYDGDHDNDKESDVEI

Usually pIC50 stands for the IC50 on a negative log10 scale, so that one unit is a factor of ten. A low value points to a high IC50. As for `O=C(NO)c1ccc(CN2c3ccccc3CC[C@@H]3CCCC[C@H]32)cc1`, the pIC50 was < 4.52 against Histone deacetylase 3, < 4.52 on Histone deacetylase 4, 5.54 on Histone deacetylase 8 and 4.85 in test [1].
